Patent US12612412B2, “Antiviral heterocyclic compounds” (Enanta Pharmaceuticals, Inc., priority 2021, dated 2026)

test system: genotype A, "Long" strain RSV; experiment: RSV-A assay (CPE protection in Hep-2 cells, ATPlite readout); type: cell-based, Human respiratory syncytial virus (HRSV); conditions: human respiratory syncytial virus, genotype A “Long” strain RSV, MOI 0.1, CPE protection, read-out: Human RSV-A (“Long”)
Text: Hep-2 cells, (originally derived from tumors grown in irradiated-cortisonised weanling rats that had been injected with epidermoid carcinoma tissue from the larynx of a person, but later found to be indistinguishable from HeLa cells by PCR DNA analysis), were used for the culturing of genotype A, “Long” strain RSV. Flasks were inoculated with RSV and viral stocks were collected once cytopathic effect (CPE) was greater than 90%. Viral stocks in 25% sucrose media were snap frozen using liquid nitrogen to increase viral stability. Viral stock titers were quantified by tissue culture infectious dose 50% (TCID50) using 8,000 cells per well and 3-fold viral dilutions across a 96-well plate, cultured for 4 days. Viral stock titers were also quantified by a plaque forming unit assay, as described elsewhere.
Following extensive parameter testing, the final assay is run as follows: Hep-2 cells are seeded into the inner 60 wells of a 96-well plate at 8,000 cells per well in a volume of 50 μL using Growth Media (DMEM without phenol red, 1% L-Glut, 1% Penn/Strep, 1% nonessential amino acids, 10% heat-inactivated FBS). 2-fold serial dilutions of control and test compounds are added to the wells in duplicate in a total volume of 25 μL. Viral stock is then added to the wells at a multiplicity of infection (MOI) of 0.1 in a volume of 25 μL, bringing the total volume of each well to 100 μL. The MOI is calculated using the PFU/mL, or TCID50 if unavailable. Each 96-well plate has a control column of 6 wells with cells and virus but no compound (negative control, max CPE), a column with cells but no compound or virus (positive control, minimum CPE), and a column with no cells or virus or compound (background plate/reagent control). The control wells with cells but no virus are given an additional 25 μL of growth media containing an equal quantity of sucrose as those wells receiving the viral stock in order to keep consistent in media and volume conditions. The outer wells of the plate are filled with 125 μL of moat media (DMEM, 1% Penn/Strep) to act as a thermal and evaporative moat around the test wells. Following a 5-day incubation period, the plates are read using ATPlite (50 uL added per well), which quantifies the amount of ATP (a measure of cell health) present in each well. Assay plates are read using the Envision luminometer. […] EC50 ranges are as follows: A<0.2 μM; B>0.2 μM.

SMILES | EC50 [µM]
C[C@]1(C(N)=O)COc2c1cc([C@@](O)(CNC(=O)c1cc3cn[nH]c3cc1C1CC1)C(F)(F)F)nc2-c1ccc(F)cc1 [Example 126] | > 0.2
Cc1cc2[nH]ncc2cc1C(=O)NC[C@](O)(c1cc2c(c(-c3ccc(F)cc3)n1)OC[C@]2(C)C(N)=O)C(F)(F)F [Example 127] | > 0.2
C[C@]1(C(N)=O)COc2c1cc([C@@](O)(CNC(=O)c1ccc3nc(NS(C)(=O)=O)sc3c1)C(F)(F)F)nc2-c1ccc(F)cc1 [Example 140] | > 0.2
COc1cc(C(=O)NC[C@](O)(c2cc3c(c(-c4ccc(F)cc4)n2)OC[C@]3(C)C(N)=O)C(F)(F)F)cc2c1cnn2C1CC1 [Example 144] | > 0.2
C[C@]1(C(N)=O)COc2c1cc([C@@](O)(CNC(=O)c1cc(Cl)c3cnn(C4CC4)c3c1)C(F)(F)F)nc2-c1ccc(F)cc1 [Example 145] | > 0.2
C[C@]1(C(N)=O)COc2c1cc([C@@](O)(CNC(=O)c1cc(F)c3cnn(C4CC4)c3c1)C(F)(F)F)nc2-c1ccc(F)cc1 [Example 146] | > 0.2
COc1cc(C(=O)NC[C@](O)(c2cc3c(c(-c4ccc(F)cc4)n2)OC[C@]3(C)C(N)=O)C(F)(F)F)ccc1OC[C@@H](C)N [Example 150] | > 0.2
CN[C@H](C)COc1ccc(C(=O)NC[C@](O)(c2cc3c(c(-c4ccc(F)cc4)n2)OC[C@]3(C)C(N)=O)C(F)(F)F)cc1OC [Example 151] | > 0.2
C[C@]1(C(N)=O)COc2c1cc([C@@](O)(CNC(=O)c1ccc3nc(NCCO)sc3c1)C(F)(F)F)nc2-c1ccc(F)cc1 [Example 162] | > 0.2
CCn1ncc2cc(C(=O)NC[C@](O)(c3cc4c(c(-c5ccc(F)cc5)n3)OC[C@]4(C)C(N)=O)C(F)(F)F)cc(Cl)c21 [Example 172] | > 0.2
Cc1cc2cc(C(=O)NC[C@](O)(c3cc4c(c(-c5ccc(F)cc5)n3)OC[C@]4(C)C(N)=O)C(F)(F)F)ccc2n1C [Example 175] | > 0.2
Cn1ccc2cc(C(=O)NC[C@](O)(c3cc4c(c(-c5ccc(F)cc5)n3)OC[C@]4(C)C(N)=O)C(F)(F)F)ccc21 [Example 176] | > 0.2
COc1cc(C(=O)NC[C@](O)(c2cc3c(c(-c4ccc(F)cc4)n2)OC[C@]3(C)C(N)=O)C(F)(F)F)nc2cc(C)nn12 [Example 180] | > 0.2
Cc1cc2nc(C(=O)NC[C@](O)(c3cc4c(c(-c5ccc(F)cc5)n3)OC[C@]4(C)C(N)=O)C(F)(F)F)cc(C)n2n1 [Example 181] | > 0.2
C[C@]1(C(N)=O)COc2c1cc([C@@](O)(CNC(=O)c1ccc3cc(C4CC4)cn3c1)C(F)(F)F)nc2-c1ccc(F)cc1 [Example 185] | > 0.2
C[C@]1(C(N)=O)COc2c1cc([C@@](O)(CNC(=O)c1ccc3nc(C4CC4)cn3n1)C(F)(F)F)nc2-c1ccc(F)cc1 [Example 186] | > 0.2

SMILES | EC50 [µM]
Cc1cc2ccc(C(=O)NC[C@](O)(c3cc4c(c(-c5ccc(F)cc5)n3)OC[C@]4(C)C(N)=O)C(F)(F)F)cn2c1 [Example 189] | > 0.2
C[C@]1(C(N)=O)COc2c1cc([C@@](O)(CNC(=O)c1ccc3sc(N)nc3c1)C(F)(F)F)nc2-c1ccc(F)cc1 [Example 190] | > 0.2
COc1cc(C(=O)NC[C@](O)(c2cc3c(c(-c4ccc(F)cc4)n2)OC[C@]3(C)C(N)=O)C(F)(F)F)nc2cc(C3CC3)nn12 [Example 192] | > 0.2
C[C@]1(C(N)=O)COc2c1cc([C@@](O)(CNC(=O)c1ccc3[nH]c(C4CC4)nc3c1)C(F)(F)F)nc2-c1ccc(F)cc1 [Example 193] | > 0.2
C[C@]1(C(N)=O)COc2c1cc([C@@](O)(CNC(=O)c1ccc3cc[nH]c3c1)C(F)(F)F)nc2-c1ccc(F)cc1 [Example 196] | > 0.2
C[C@]1(C(N)=O)COc2c1cc([C@@](O)(CNC(=O)c1cnn3cccc3c1Cl)C(F)(F)F)nc2-c1ccc(F)cc1 [Example 198] | > 0.2
C[C@]1(C(N)=O)COc2c1cc([C@@](O)(CNC(=O)c1cnn3cccc3c1)C(F)(F)F)nc2-c1ccc(F)cc1 [Example 201] | > 0.2
C[C@]1(C(N)=O)COc2c1cc([C@@](O)(CNC(=O)c1ccc3[nH]c(C4CC4)cc3c1)C(F)(F)F)nc2-c1ccc(F)cc1 [Example 205] | > 0.2
COc1ccccc1-c1cc(C(=O)NC[C@](O)(c2cc3c(c(-c4ccc(F)cc4)n2)OC[C@]3(C)C(N)=O)C(F)(F)F)n[nH]1 [Example 207] | > 0.2
COc1cccc(-c2cc(C(=O)NC[C@](O)(c3cc4c(c(-c5ccc(F)cc5)n3)OC[C@]4(C)C(N)=O)C(F)(F)F)n[nH]2)c1 [Example 208] | > 0.2
COc1ccc(-c2cc(C(=O)NC[C@](O)(c3cc4c(c(-c5ccc(F)cc5)n3)OC[C@]4(C)C(N)=O)C(F)(F)F)n[nH]2)cc1 [Example 209] | > 0.2
C[C@]1(C(N)=O)COc2c1cc([C@@](O)(CNC(=O)c1nc(-c3ccccc3)c[nH]1)C(F)(F)F)nc2-c1ccc(F)cc1 [Example 212] | > 0.2
COc1cccc(-n2ccc(C(=O)NC[C@](O)(c3cc4c(c(-c5ccc(F)cc5)n3)OC[C@]4(C)C(N)=O)C(F)(F)F)n2)c1 [Example 213] | > 0.2
COc1ccccc1-c1nc(C(=O)NC[C@](O)(c2cc3c(c(-c4ccc(F)cc4)n2)OC[C@]3(C)C(N)=O)C(F)(F)F)c[nH]1 [Example 214] | > 0.2
CC(C)(O)CNC(=O)Nc1cc(C(=O)NC[C@](O)(c2cc3c(c(-c4ccc(F)cc4)n2)OC[C@]3(C)C(N)=O)C(F)(F)F)cc2cc(C3CC3)cnc12 [Example 215] | < 0.2

Continued, values first:

EC50 [µM] | SMILES
< 0.2 | C[C@]1(C(N)=O)COc2c1cc([C@@](O)(CNC(=O)c1ccc3nc(C(N)=O)sc3c1)C(F)(F)F)nc2-c1ccc(F)cc1 [Example 130]
< 0.2 | COc1cc(C(=O)NC[C@](O)(c2cc3c(c(-c4ccc(F)cc4)n2)OC[C@]3(C)C(N)=O)C(F)(F)F)ccc1OC[C@@H](O)C(F)(F)F [Example 131]
< 0.2 | COc1cc(C(=O)NC[C@](O)(c2cc3c(c(-c4ccc(F)cc4)n2)OC[C@]3(C)C(N)=O)C(F)(F)F)ccc1OC[C@H](C)O [Example 133]
< 0.2 | C[C@]1(C(N)=O)COc2c1cc([C@@](O)(CNC(=O)c1ccc3nc(NC(=N)N)sc3c1)C(F)(F)F)nc2-c1ccc(F)cc1 [Example 159]
< 0.2 | C[C@H](O)CNc1nc2ccc(C(=O)NC[C@](O)(c3cc4c(c(-c5ccc(F)cc5)n3)OC[C@]4(C)C(N)=O)C(F)(F)F)cc2s1 [Example 163]
< 0.2 | C[C@@H](O)CNc1nc2ccc(C(=O)NC[C@](O)(c3cc4c(c(-c5ccc(F)cc5)n3)OC[C@]4(C)C(N)=O)C(F)(F)F)cc2s1 [Example 164]
< 0.2 | Cc1cc2cc(C(=O)NC[C@](O)(c3cc4c(c(-c5ccc(F)cc5)n3)OC[C@]4(C)C(N)=O)C(F)(F)F)ccc2[nH]1 [Example 171]
< 0.2 | CCn1cc2cc(C(=O)NC[C@](O)(c3cc4c(c(-c5ccc(F)cc5)n3)OC[C@]4(C)C(N)=O)C(F)(F)F)cc(Cl)c2n1 [Example 173]
< 0.2 | C[C@]1(C(N)=O)COc2c1cc([C@@](O)(CNC(=O)c1ccc3nc(NC(=O)[C@@H](N)CO)sc3c1)C(F)(F)F)nc2-c1ccc(F)cc1 [Example 187]
< 0.2 | C[C@]1(C(N)=O)COc2c1cc([C@@](O)(CNC(=O)c1ccc3oc(N)nc3c1)C(F)(F)F)nc2-c1ccc(F)cc1 [Example 191]
< 0.2 | Cc1cc(C(=O)NC[C@](O)(c2cc3c(c(-c4ccc(F)cc4)n2)OC[C@]3(C)C(N)=O)C(F)(F)F)cc2nc[nH]c12 [Example 194]
< 0.2 | C[C@]1(C(N)=O)COc2c1cc([C@@](O)(CNC(=O)c1cc(Br)c3[nH]cnc3c1)C(F)(F)F)nc2-c1ccc(F)cc1 [Example 195]
< 0.2 | C[C@]1(C(N)=O)COc2c1cc([C@@](O)(CNC(=O)c1cc(F)c3[nH]ccc3c1)C(F)(F)F)nc2-c1ccc(F)cc1 [Example 197]
< 0.2 | C[C@]1(C(N)=O)COc2c1cc([C@@](O)(CNC(=O)c1cc(Br)c3oc(N)nc3c1)C(F)(F)F)nc2-c1ccc(F)cc1 [Example 202]
< 0.2 | C[C@]1(C(N)=O)COc2c1cc([C@@](O)(CNC(=O)c1cc(Br)c3nc(N)oc3c1)C(F)(F)F)nc2-c1ccc(F)cc1 [Example 203]
< 0.2 | C[C@]1(C(N)=O)COc2c1cc([C@@](O)(CNC(=O)c1cc(Br)c3[nH]c(C4CC4)nc3c1)C(F)(F)F)nc2-c1ccc(F)cc1 [Example 204]
< 0.2 | C[C@]1(C(N)=O)COc2c1cc([C@@](O)(CNC(=O)c1cc(OC3CC3)c3[nH]ccc3c1)C(F)(F)F)nc2-c1ccc(F)cc1 [Example 206]
< 0.2 | C[C@]1(C(N)=O)COc2c1cc([C@@](O)(CNC(=O)c1cc3c(OC(F)F)cccc3[nH]1)C(F)(F)F)nc2-c1ccc(F)cc1 [Example 211]
